Laboratory results reported in ChEMBL document CHEMBL1142448, “Design and synthesis of 6-phenylnicotinamide derivatives as antagonists of TRPV1” (Bioorg Med Chem Lett, 2008).
Values belong to the molecule of their own block, whether it stands above or below them.

Experiments:
[1] = molecular target: T1, Transient receptor potential cation channel subfamily V member 1 (Homo sapiens, UniProt Q8NER1); experiment: Antagonist activity at human TRPV1 expressed in human 1321N1 cells assessed as inhibition of capsaicin-induced calcium influx by FLIPR assay; format: functional, cell-based
T1 sequence (Q8NER1 whole entry): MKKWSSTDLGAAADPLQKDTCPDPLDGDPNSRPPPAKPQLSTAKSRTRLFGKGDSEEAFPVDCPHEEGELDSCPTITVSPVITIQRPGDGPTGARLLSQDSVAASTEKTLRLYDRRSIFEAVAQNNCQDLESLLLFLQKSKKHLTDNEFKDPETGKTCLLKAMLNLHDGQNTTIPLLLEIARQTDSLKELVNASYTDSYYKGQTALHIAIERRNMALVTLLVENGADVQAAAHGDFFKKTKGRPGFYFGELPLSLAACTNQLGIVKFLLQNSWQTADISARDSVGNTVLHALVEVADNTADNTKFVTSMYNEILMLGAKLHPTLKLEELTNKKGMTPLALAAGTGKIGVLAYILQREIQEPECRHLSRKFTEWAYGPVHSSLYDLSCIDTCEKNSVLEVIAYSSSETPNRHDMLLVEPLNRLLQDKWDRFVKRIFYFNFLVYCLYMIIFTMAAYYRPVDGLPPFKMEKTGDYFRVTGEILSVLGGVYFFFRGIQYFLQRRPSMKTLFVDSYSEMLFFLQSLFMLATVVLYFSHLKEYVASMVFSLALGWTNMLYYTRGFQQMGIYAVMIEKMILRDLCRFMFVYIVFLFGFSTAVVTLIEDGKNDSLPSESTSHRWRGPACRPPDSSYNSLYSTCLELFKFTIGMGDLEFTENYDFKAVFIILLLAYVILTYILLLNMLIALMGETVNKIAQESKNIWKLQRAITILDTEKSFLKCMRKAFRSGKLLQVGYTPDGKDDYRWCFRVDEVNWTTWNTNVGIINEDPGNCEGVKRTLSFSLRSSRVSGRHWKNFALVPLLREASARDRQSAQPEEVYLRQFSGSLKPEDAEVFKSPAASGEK

[2] = Intrinsic clearance in guinea pig liver microsomes; format: ADME, Cavia porcellus, Microsome
Liver microsomes = experiment: Intrinsic clearance in human liver microsomes; format: ADME, Microsome
Cavia porcellus [3] = experiment: Antihyperalgesic activity in guinea pig assessed as reversal of FCA-induced inflammatory pain at 5 mg/kg, ip; format: functional; conditions: route intraperitoneal
Cytochrome P450 3A4 = Cytochrome P450 3A4 (Homo sapiens, UniProt P08684); experiment: Inhibition of CYP3A4; format: ADME
Chain of Cytochrome P450 3A4 (P08684 whole entry): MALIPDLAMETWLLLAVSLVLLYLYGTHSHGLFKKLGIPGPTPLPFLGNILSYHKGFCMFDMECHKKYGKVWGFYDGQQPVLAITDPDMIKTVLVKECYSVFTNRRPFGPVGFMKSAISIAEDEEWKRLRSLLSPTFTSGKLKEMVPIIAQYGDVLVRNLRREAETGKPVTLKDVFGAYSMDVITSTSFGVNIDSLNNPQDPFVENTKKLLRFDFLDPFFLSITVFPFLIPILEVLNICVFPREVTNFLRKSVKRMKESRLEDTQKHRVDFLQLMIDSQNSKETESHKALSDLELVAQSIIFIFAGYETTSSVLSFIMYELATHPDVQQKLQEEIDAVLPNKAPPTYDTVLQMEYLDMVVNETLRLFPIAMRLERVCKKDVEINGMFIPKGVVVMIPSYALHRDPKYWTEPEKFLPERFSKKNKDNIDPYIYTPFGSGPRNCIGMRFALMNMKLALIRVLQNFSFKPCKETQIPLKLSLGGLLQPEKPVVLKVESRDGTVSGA

Cavia porcellus [4] = experiment: Antihyperalgesic activity in guinea pig assessed as reversal of FCA-induced inflammatory pain at 30 mg/kg, sc; format: functional; conditions: route subcutaneous
[5] = Blood clearance in rat at 1 mg/kg, iv; format: ADME, organism-based; parameters: dose 1 mg/kg, route intravenous; conditions: whole blood
[6] = Half life in rat at 1 mg/kg, iv; format: ADME, organism-based; parameters: dose 1 mg/kg, route intravenous; conditions: in vivo
[7] = molecular target: T1, Transient receptor potential cation channel subfamily V member 1; experiment: Antagonist activity at human TRPV1 expressed in HEK293 cells assessed as inhibition of capsaicin-induced calcium influx by whole cell patch clamp assay; format: functional, cell-based
[8] = Oral bioavailability in guinea pig; format: ADME, organism-based, Cavia porcellus; conditions: in vivo
[9] = molecular target: T1, Transient receptor potential cation channel subfamily V member 1; experiment: Antagonist activity at human TRPV1 expressed in HEK293 cells assessed as inhibition of pH 5.3 acid-induced calcium influx at 100 nM by whole cell patch clamp assay; format: functional, cell-based
[10] = molecular target: T1, Transient receptor potential cation channel subfamily V member 1; experiment: Antagonist activity at human TRPV1 expressed in HEK293 cells assessed as inhibition of capsaicin-induced calcium influx at 1 uM by whole cell patch clamp assay; format: functional, cell-based
[11] = molecular target: T1, Transient receptor potential cation channel subfamily V member 1; conditions: HEK293
Description: Antagonist activity at human TRPV1 expressed in HEK293 cells assessed as inhibition of capsaicin-induced calcium influx by FLIPR assay

Cavia porcellus [12] = species on record: Cavia porcellus; experiment: Antihyperalgesic activity against FCA-induced inflammatory pain in guinea pig assessed as paw withdrawal after 1 hr; format: functional
[13] = molecular target: T1, Transient receptor potential cation channel subfamily V member 1; experiment: Antagonist activity at human TRPV1 expressed in HEK293 cells assessed as inhibition of pH 5.3 acid-induced calcium influx by FLIPR assay; format: functional, cell-based
[14] = molecular target: T1, Transient receptor potential cation channel subfamily V member 1; experiment: Antagonist activity at human TRPV1 expressed in HEK293 cells assessed as inhibition of pH 5.3 acid-induced calcium influx by whole cell patch clamp assay; format: functional, cell-based
[15] = molecular target: Transient receptor potential cation channel subfamily V member 1 (Rattus norvegicus) (UniProt O35433); conditions: HEK293
Chain of Transient receptor potential cation channel subfamily V member 1 (Rattus norvegicus) (O35433 whole entry): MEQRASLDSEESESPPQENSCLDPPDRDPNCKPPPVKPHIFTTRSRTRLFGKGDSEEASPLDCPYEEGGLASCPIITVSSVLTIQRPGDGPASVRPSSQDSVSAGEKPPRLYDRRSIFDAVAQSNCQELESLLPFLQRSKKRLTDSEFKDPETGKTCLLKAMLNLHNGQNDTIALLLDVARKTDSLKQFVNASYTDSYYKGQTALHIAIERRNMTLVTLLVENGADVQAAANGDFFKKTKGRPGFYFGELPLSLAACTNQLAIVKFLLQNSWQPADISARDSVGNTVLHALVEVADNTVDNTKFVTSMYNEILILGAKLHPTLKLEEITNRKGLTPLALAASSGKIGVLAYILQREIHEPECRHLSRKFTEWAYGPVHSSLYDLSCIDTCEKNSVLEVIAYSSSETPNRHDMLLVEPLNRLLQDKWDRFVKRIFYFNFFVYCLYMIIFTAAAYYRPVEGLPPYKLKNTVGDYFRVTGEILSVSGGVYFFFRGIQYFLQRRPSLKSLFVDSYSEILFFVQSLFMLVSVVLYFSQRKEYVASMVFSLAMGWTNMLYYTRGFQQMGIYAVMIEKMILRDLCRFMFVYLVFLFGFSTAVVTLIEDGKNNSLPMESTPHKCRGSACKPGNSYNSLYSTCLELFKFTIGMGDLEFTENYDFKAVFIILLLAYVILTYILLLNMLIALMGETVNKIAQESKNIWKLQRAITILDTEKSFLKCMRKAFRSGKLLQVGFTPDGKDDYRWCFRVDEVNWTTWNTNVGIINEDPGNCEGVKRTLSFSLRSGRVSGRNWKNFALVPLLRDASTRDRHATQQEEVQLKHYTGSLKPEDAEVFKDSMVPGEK
Description: Antagonist activity at rat TRPV1 expressed in HEK293 cells assessed as inhibition of capsaicin-induced calcium influx by FLIPR assay

[16] = molecular target: T1, Transient receptor potential cation channel subfamily V member 1; experiment: Inhibition of human TRPV1 expressed in HEK293 cells assessed as reversible inhibition of heat-activated current at 1 uM by whole cell patch clamp assay relative to control; format: cell-based
[17] = molecular target: Transient receptor potential cation channel subfamily V member 1 (Rattus norvegicus, UniProt O35433); experiment: Antagonist activity at rat TRPV1 expressed in HEK293 cells assessed as inhibition of pH 5.3 acid-induced calcium influx by FLIPR assay; format: functional, cell-based
Chain of Transient receptor potential cation channel subfamily V member 1 (Rattus norvegicus, UniProt O35433) (O35433 whole entry): as above

[18] = molecular target: Transient receptor potential cation channel subfamily V member 1 (Cavia porcellus, UniProt Q6R5A3); experiment: Antagonist activity at guinea pig TRPV1 expressed in HEK293 cells assessed as inhibition of pH 5.3 acid-induced calcium influx by FLIPR assay; format: functional, cell-based
Chain of Transient receptor potential cation channel subfamily V member 1 (Cavia porcellus, UniProt Q6R5A3) (Q6R5A3 whole entry): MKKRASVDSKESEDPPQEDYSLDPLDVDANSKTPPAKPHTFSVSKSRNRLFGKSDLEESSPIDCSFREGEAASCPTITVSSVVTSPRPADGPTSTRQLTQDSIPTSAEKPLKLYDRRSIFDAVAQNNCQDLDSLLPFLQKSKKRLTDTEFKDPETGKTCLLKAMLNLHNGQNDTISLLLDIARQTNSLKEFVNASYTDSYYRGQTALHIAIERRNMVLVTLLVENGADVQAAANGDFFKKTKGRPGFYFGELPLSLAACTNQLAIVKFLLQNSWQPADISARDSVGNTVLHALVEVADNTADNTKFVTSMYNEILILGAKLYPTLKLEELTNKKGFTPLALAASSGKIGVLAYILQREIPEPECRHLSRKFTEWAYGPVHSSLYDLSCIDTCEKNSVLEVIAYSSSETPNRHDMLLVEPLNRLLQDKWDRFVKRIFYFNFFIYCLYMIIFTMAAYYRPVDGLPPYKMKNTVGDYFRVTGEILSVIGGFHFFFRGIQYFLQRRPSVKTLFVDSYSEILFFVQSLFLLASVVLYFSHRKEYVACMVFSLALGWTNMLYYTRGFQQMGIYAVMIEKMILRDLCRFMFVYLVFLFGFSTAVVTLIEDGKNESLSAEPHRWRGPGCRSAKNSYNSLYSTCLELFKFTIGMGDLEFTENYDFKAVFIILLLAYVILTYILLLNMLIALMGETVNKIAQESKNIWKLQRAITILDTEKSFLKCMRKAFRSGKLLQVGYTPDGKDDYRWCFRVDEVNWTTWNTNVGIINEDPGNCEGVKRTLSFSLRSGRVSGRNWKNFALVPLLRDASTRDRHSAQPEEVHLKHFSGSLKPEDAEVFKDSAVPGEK

[19] = molecular target: Transient receptor potential cation channel subfamily V member 1 (Cavia porcellus) (UniProt Q6R5A3); conditions: HEK293
Chain of Transient receptor potential cation channel subfamily V member 1 (Cavia porcellus) (Q6R5A3 whole entry): as above
Description: Antagonist activity at guinea pig TRPV1 expressed in HEK293 cells assessed as inhibition of capsaicin-induced calcium influx by FLIPR assay

SMILES: Cc1nc(-c2ccc(F)cc2)ccc1C(=O)Nc1ccc2nc[nH]c2c1
pKb [1]: 7.2

SMILES: Cc1nc2ccc(NC(=O)c3ccc(-c4ccc(F)cc4)nc3C)cc2[nH]1
pKb [1]: 6

SMILES: Cc1nc(-c2ccc(F)cc2)ccc1C(=O)Nc1ccc2ncn(C)c2c1
pKb [1]: 6.7

SMILES: Cc1nc(-c2ccc(F)cc2)ccc1C(=O)Nc1ccc2scnc2c1
pKb [1]: 7.5

SMILES: Cc1nc(-c2ccc(F)cc2)ccc1C(=O)Nc1ccc2ncsc2c1
pKb [1]: 6.7

SMILES: Cc1nc(-c2ccc(F)cc2)ccc1C(=O)Nc1ccc2cn[nH]c2c1
pKb [1]: 7.5

SMILES: Cc1nc(-c2ccc(F)cc2)ccc1C(=O)Nc1ccc2c(C)n[nH]c2c1
pKb [1]: 6.9

SMILES: Cc1nc(-c2ccc(F)cc2)ccc1C(=O)Nc1ccc2ccn(C)c2c1
pKb [1]: < 6.5

SMILES: Cc1nc(-c2ccc(F)cc2)ccc1C(=O)Nc1ccc2sc(N(C)C)nc2c1
pKb [1]: < 5.8

SMILES: Cc1nc2cc(NC(=O)c3ccc(-c4ccc(F)cc4)nc3C)ccc2s1
pKb [1]: 7.4
Activity (Cavia porcellus [3]): 48%
IC50 [7]: 49 nM
bioavailability [8]: 24%
inhibition [9]: 96%
CL [2]: 2.7 mL/min/g
inhibition [10]: 100%
CL (Liver microsomes): 2.2 mL/min/g
pKb [11]: 7.2
Activity (Cavia porcellus [12]): 68%
ED50 (Cavia porcellus [12]; Cavia porcellus, 1 h): 0.53 mg/kg
IC50 [13]: 39.8 nM
IC50 [14]: 9 nM
pKb [15]: 7
inhibition [16]: 87%
IC50 [17]: 100 nM
IC50 [18]: 63.1 nM
pKb [19]: 7.4

SMILES: Cc1nc(-c2ccc(F)cc2)ccc1C(=O)Nc1ccc2sc(CN(C)C)nc2c1
pKb [1]: < 6.7

SMILES: Cc1nc2ccc(NC(=O)c3ccc(-c4ccc(F)cc4)nc3C)cc2o1
pKb [1]: < 6.7

More lines, main results first:

pKb [1]: 8.7
SMILES: O=C(Nc1ccc2cccnc2c1)c1ccc(-c2ccccc2F)nc1

pKb [1]: 8.6
SMILES: O=C(Nc1ccc2cccnc2c1)c1ccc(-c2cccc(F)c2)nc1

pKb [1]: < 6.7
SMILES: O=C(Nc1ccc2cccnc2c1)c1ccc(Cl)nc1

pKb [1]: 7.8
SMILES: O=C(Nc1ccc2cccnc2c1)c1ccc(-c2ccc(Cl)cc2)nc1

pKb [1]: < 6.6
SMILES: N#Cc1ccc(-c2ccc(C(=O)Nc3ccc4cccnc4c3)cn2)cc1

pKb [1]: 9
SMILES: Cc1nc(-c2ccccc2)ccc1C(=O)Nc1ccc2cccnc2c1

pKb [1]: 8.2
CL [2]: 42 mL/min/g
CL (Liver microsomes): 1.7 mL/min/g
SMILES: O=C(Nc1ccc2cccnc2c1)c1ccc(-c2ccc(F)cc2)nc1

pKb [1]: 7.3
SMILES: O=C(Nc1ccc2cccnc2c1)c1ccc(-c2ccc(C(F)(F)F)cc2)nc1

pKb [1]: < 6.7
SMILES: N#Cc1ccc(C(=O)Nc2ccc3cccnc3c2)cn1

pKb [1]: 8.5
IC50 (Cytochrome P450 3A4): < 10000 nM
SMILES: Cc1nc(-c2ccc(F)cc2)ccc1C(=O)Nc1ccc2cccnc2c1
Activity (Cavia porcellus [3]): 42%

clearance [5]: 33 mL/min/kg
CL [2]: 3.9 mL/min/g
CL (Liver microsomes): 3.1 mL/min/g
half-life [6]: 21.6 min
SMILES: O=C(Nc1ccc2cccnc2c1)c1ccc(-c2ccccc2)nc1
Activity (Cavia porcellus [4]): 32%

pKb [1]: 6.7
SMILES: Cc1cc(-c2ccccc2)ncc1C(=O)Nc1ccc2cccnc2c1
